Data: patent US5908868A, “Retinol derivatives useful for enhancing immune response” (priority 1995, dated 1999)
Entries after “also recorded” stand apart in the source; their conditions may differ. Like-named read-outs stand apart in the source and are kept apart here.

How the values were obtained:
lymph node T cells = assay: Proliferation of anti-CD3 activated lymph node T cells; format: cell-based, BALB/c mouse; conditions: anti-CD3
From the text: (§1) Growth curves of lymph node T cells depleted of antigen-presenting cells (FIG. 17A) with and without 10^-6 M retinol at 2×10^5 and 5×10^4 cells/well. (FIG. 17B) Dose-responses elicited by different retinoids in cultures of lymph node T cells depleted of antigen-presenting cells. Also shown are the growth curves of CD4^+ (FIG. 17C) and CD8^+ T lymphocytes (FIG. 17D) in the presence of either retinol, 14HRR, human serum or in their absence.
(§2) T lymphocytes, purified as described, 5×10^4 well, were activated with immobilized anti-CD3 antibody in ITLB medium. The indicated amounts of retinoids or human serum were added at initiation of cultures. […] 14HRR was added every 12 hours. DNA synthesis was measured by a 4 hour pulse with tritiated thymidine. SDs were ≤17%.
Mature T cells were obtained from pooled intestinal, axillary, inguinal and submandibular lymph nodes of 4 to 10-week-old BALB/c mice. To fractionate cells into CD4 and CD8 subsets and at the same time remove APC, a combination of adherence and complement lysis was used as follows:
Cells were cultured in serum-free medium, referred to as ITLB, containing RPMI 1640 supplemented with 8×10^-7 M insulin (5 μg/ml), 7×10^-8 M transferrin (5 μg/ml), 2×10^-6 M linoleic acid, 2×10^-6 M delipidated BSA (0.12 mg/ml), 2 mM L-glutamine, 1 mM sodium pyruvate and antibiotics. They were seeded into 96-well flat-bottom plates at varying cellular densities in a final volume of 100 μl. In control experiments, cells were cultured in medium containing 10% FCS or 3% human serum and 5×10^-5 M 2 ME. T cells and thymocytes were activated with immobilized, purified anti-mab CD3e or by the addition of Con A in the presence or absence of different concentrations of retinoids. Unless indicated otherwise, retinoids were replenished every 12 hours to maintain a reasonably constant concentration of these labile compounds in culture. The optimal concentration for stimulation of T cells was determined for each batch of anti-CD3 mAb and Con A. The optimal range of Con A was particularly narrow in serum-free medium (0.5-0.2 μg/ml) and varied with the cell density used. […] Cultures were carried out in duplicate. Plates were incubated at 37° C. in a humidified 5% CO2 atmosphere. Cellular proliferation was determined by [^3 H] thymidine uptake (0.5 uCi/well; New England Nuclear, Boston, Mass.) after the incubation times indicated for each experiment with a 4 hour labeling pulse. Cells were harvested onto glass filter and [^3 H]TdR incorporation was determined by liquid scintillation counting. The data presented are the means of duplicate or six replicate cultures. The restriction to duplicate measurements was necessary to conserve scarce 14HRR. They were within 20% of each other. Each experiment was repeated at least twice.

blast cells (thymocytes) = assay: Flow cytometry phenotype of blast cells from activated thymocyte cultures; format: cell-based, BALB/c mouse; conditions: retinol- and 14HRR-supported cultures, data not shown
Experimental: To determine the phenotype of blast cells generated in the thymocyte cultures stimulated with immobilized anti-CD3 antibody and retinoids as well as the purity of CD4 and CD8 subsets isolated from pooled mouse lymph nodes, cells (10^5 -10^6 cells/sample), stained with FITC-conjugated anti-CD4 antibody and PE-conjugated anti-CD8 antibody, were analyzed by two-color flow cytometry with a FACScan. Dead cells were eliminated by forward low-angle scatter. Isotope controls were included in all experiments. To determine the phenotypes of activated thymocytes only blast cells were gated for collection and analysis.

CD4+ T lymphocytes = assay: Proliferation of anti-CD3 activated CD4+ T lymphocytes; format: cell-based, BALB/c mouse
From the text: as §1, §2
(§3) The cell suspension in a volume of 2 ml was applied to a nylon wool column (40) (0.6 g of washed nylon fibers in the barrel of a 10 ml syringe) and incubated at 37° C. for 40 min. The non-adherent cells were recovered by washing with warm serum-free medium at a flow rate of 1 ml/min. […] The success of the enrichment procedures was monitored cytofluorimetrically using FITC-conjugated anti-CD8 and PE-conjugated anti-CD4. […]

CD8+ T lymphocytes = assay: Proliferation of anti-CD3 plus IL-2 activated CD8+ T lymphocytes; format: cell-based, BALB/c mouse
From the text: as §1, §2, §3

B lymphocytes = conditions: cited from earlier work
T cells = assay: T cell activation/proliferation; format: cell-based, murine; conditions: for substitution for retinol in T cell activation: with mitogen/anti-CD3; for T cell activation on its own: without mitogen
Experimental: They were seeded into 96-well flat-bottom plates at varying cellular densities in a final volume of 100 μl. In control experiments, cells were cultured in medium containing 10% FCS or 3% human serum and 5×10^-5 M 2 ME. […] Cultures were carried out in duplicate. Plates were incubated at 37° C. in a humidified 5% CO2 atmosphere. Cellular proliferation was determined by [^3 H] thymidine uptake (0.5 uCi/well; New England Nuclear, Boston, Mass.) after the incubation times indicated for each experiment with a 4 hour labeling pulse. Cells were harvested onto glass filter and [^3 H]TdR incorporation was determined by liquid scintillation counting. The data presented are the means of duplicate or six replicate cultures. The restriction to duplicate measurements was necessary to conserve scarce 14HRR. […] Each experiment was repeated at least twice.

5/2 = assay: Retinol metabolism; format: in vitro ADME, human
Experimental: (§4) FBS. The FBS was preincubated at room temperature with 14.4 uCi [^3 H
(§5) retinol (NEN) for 4 h. The cell pellet was washed twice with PBS. The
(§6) retinoid were extracted according to MClean et al. 90 and separated on an
(§7) analytical c18 reverse phase column according to FIG. 7. The DPM wer
(§8) determined using an online scintillation counter.

Raji (37°) = assay: Retinol metabolism; format: in vitro ADME, human
Experimental: as §4, §5, §6, §7, §8

Raji (4°) = assay: Retinol metabolism; format: in vitro ADME, human
Experimental: as §4, §5, §6, §7, §8

[1] = cited from earlier work
thymocytes = assay: Growth-stimulating effect of retinol on anti-CD3 activated thymocytes in the presence of interleukins; format: cell-based, BALB/c mouse; conditions: 3 days
[2] = previous analyses with B lymphocytes (33)

CC(C=CC=C(C)C(O)CO)=CC=C1C(C)=CCCC1(C)C (centres unmarked) [14HRR, 14-hydroxy-4,14-retro-retinol]
stimulation of lymph node T cells (lymph node T cells): effective over the same dose range as observed for thymocytes | CD4+ cells among blast cells (blast cells (thymocytes)): ~70% | CD8+ cells among blast cells (blast cells (thymocytes)): ~30% | response to activating signal (CD4+ T lymphocytes): responded to the activating signal | response to activating signal (CD8+ T lymphocytes): responded to the activating signal | potency relative to retinol in preventing necrotic cell death (B lymphocytes; on a concentration basis, previous studies): 20-40 times more potent | concentration at which activity was demonstrated (B lymphocytes; [2]): 5 µM | difference in active concentration, 14HRR versus retinal (B lymphocytes; [2]): 40 fold | support of B cell growth/proliferation (B lymphocytes; previous studies): capable of supporting the proliferation of B cells in the absence of an external supply of retinol | activity relative to all-trans retinol in T cells (T cells): as active | substitution for retinol in T cell activation (T cells): capable of supporting T cell activation and proliferation | substitution for retinol in T cell activation (T cells; listed as 14-hydroxy-retro-retinol): effectively supports T cell activation in conjunction with a mitogen in lieu of retinol; also recorded: capable of supporting activation and sustaining proliferation of T cells | T cell activation on its own (T cells): unable to activate T cells on their own

CC1=C(/C=C/C(C)=C/C=C/C(C)=C/CO)C(C)(C)CCC1 [retinol, all-trans retinol]
stimulation of lymph node T cells (lymph node T cells): dependent on the presence of retinol | CD4+ cells among blast cells (blast cells (thymocytes)): ~70% | CD8+ cells among blast cells (blast cells (thymocytes)): ~30% | response to activating signal (CD4+ T lymphocytes): responded to the activating signal | response to activating signal (CD8+ T lymphocytes): responded to the activating signal | support of B cell growth/proliferation (B lymphocytes; previous studies): necessary for the growth of B lymphocytes | Total cts. (5/2; 5/2): 5.7 × 10^5 cts. | Ester (% of taken up retinol) (5/2; 5/2, overnight): 24% | P3 (% of taken up retinol) (5/2; 5/2, overnight): 4% | Retinol (% of taken up retinol) (5/2; 5/2, overnight): 67% | Total cts. (Raji (37°); 2.5 × 10^6 cells): 4.0 × 10^5 cts. | Ester (% of taken up retinol) (Raji (37°); overnight): 14% | P3 (% of taken up retinol) (Raji (37°); overnight): 3% | Retinol (% of taken up retinol) (Raji (37°); overnight): 79% | Total cts. (Raji (4°); 2.5 × 10^6 cells): 2.5 × 10^5 cts. | Ester (% of taken up retinol) (Raji (4°); overnight): 0% | P3 (% of taken up retinol) (Raji (4°); overnight): 0% | Retinol (% of taken up retinol) (Raji (4°); overnight): 99% | half-life ([1]; cell culture, serum-free medium (32)): < 24 h | half-life ([1]; serum-free tissue culture medium (32)): ~24 h | activation in FCS-containing medium in absence of APC (T cells; additional retinol supplied, FCS medium): no activation | optimally effective dose (T cells; given once in a 3-day culture): 2 µM | optimally effective dose (T cells; provided at 12 hour intervals): 0.2 µM | T cell activation on its own (T cells): unable to activate T cells on their own | CPM anti-CD3, 10^-6 M Retinol (thymocytes): 79,247 ± 17,567 CPM
